Experimental data from patent publication US6069156A, “Indole derivatives as cGMP-PDE inhibitors” (Fujisawa Pharmaceutical Co., Ltd., priority 1995, dated 2000).

What was measured:
[1] = test system: streptozotocin-induced diabetes mellitus; experiment: Diabetic Glomerulosclerosis Model (streptozotocin); type: in vivo, Male SD rats
Method: Diabetic Glomerulosclerosis Model
6 weeks old Male SD rats were treated with streptozotocin (60 mg/kg i.v.) to induce diabetes mellitus. One week after streptozotocin treatment, test compound, 3.2, 10 mg/kg was started to be orally administered twice a day for 16 weeks.

corpora cavernosa [2] = experiment: Effect on Nitroprusside or Ach-induced Relaxation in Isolated Rat Corpora Cavernosa; design: species or system Male SD rats; conditions: compound at 10^-7 M
Method: (a) Effect of Test Compound on Nitroprusside or Ach-induced Relaxation in Isolated Rat Corpora Cavernosa
Male SD rats were anesthetized with sodium pentobarbital 50 mg/kg intraperitoneally, and the corpora cavernosa was excised. The tunica albuginea was dissected according to the methods described by Italiano et al. (Pharmacological Research, 30, No.4, 1994) and used for in vitro pharmacological study. The erectile tissue strip was placed in a 25 ml organ bath containing Krebs-Ringer solution. The bath was maintained at 37° C. and bubbled with 95% O2 and 5% CO2. The strip was stretched with a resting force of 0.25 g, and isometric contraction were recorded via force development transducer on a recorder.
The strip was equilibrated in the Krebs-Ringer solution for about 60 minutes, and preconstructed by 0.1 mM norepinephrine to ascertain the responsibility of each preparation. The strip was washed several times, and then constricted by 0.1 mM norepinephrine. After getting stable constrictile response to norepinephrine, the first dose-response curve for sodium nitroprusside or Ach was obtained. After washing a few times for 60 minutes, the strip was constricted by norepinephrine again, and the second dose-response curve for sodium nitroprusside or Ach was obtained. The test compound was added 30 minutes before adding norepinephrine.

cGMP-PDE = molecular target: T1, cGMP-PDE (Homo sapiens, UniProt O76074); experiment: cGMP-phosphodiesterase (PDE) Assay (human platelets); type: biochemical
T1 construct: cGMP-PDE was separated from other isozymes in human platelets; from tissue; host or cells: human platelets
Method: cGMP-phosphodiesterase (PDE) Assay
cGMP-PDE was separated from other isozymes in human platelets by a modification of the method of Thompson et. al. (Cyclic Nucleotide Phosphodiesterase (PDE), in Methods of Enzymatic analysis, Vol 4, p127-234, 1984). In enzyme inhibition assays, the test compounds were dissolved in 10% DMSO and then diluted with assay buffer (50 mM Tris-HCl, pH 8.0, 0.1 mM dithiothreitol, 2 mM EGTA and 10 u/ml snake venom), at final concentrations ranging from 10^-10 to 10^-6 M. Assays were performed at 0.1 μM substrate ([^3 H]-cGMP) concentration, at 30° C. for 10 minutes using enzyme dilutions which gave 10-20% hydrolysis of substrate. Each assay was initiated by addition of substrate and terminated by addition of anion exchange resin (Dowex 1-X8, 25 μg/mg) followed by centrifugation for 10 minutes (3000 rpm, at 4° C.). Radioactivity of supernatant (^3 H-GMP) was assayed by liquid scintillation counting.

[3] = Toxicity by repetitive oral administration; type: in vivo, SD rat; conditions: 32 mg/kg once a day orally, 14 consecutive days
[4] = test system: blood flow of corpus spongiosum penis and corpus cavernosum penis; experiment: Impotence Model (c): penile blood flow in anesthetized beagle; type: in vivo, Male beagle
Method: (c) Male beagle weighing 8.0-12.0 kg were anesthetized with pentobarbital sodium (35 mg/kg, i.v.). After tracheotomy, the animal was artificially ventilated using a volume-cycled ventilator. The femoral artery was cannulated for continuous blood pressure and heart rate monitoring. The femoral vein was cannulated for maintenance of anesthesia and administration of tested compound. Two laser-dopper probes were placed in the corpus spongiosum penis and corpus cavernosum penis for recording blood flow. After a period of stabilization of all parameters, tested compound was injected intravenously at a various concentration. […] The increase in blood flow reached a peak value of 55% of baseline and continued for longer than 15 minutes after the administration of said compound 1.0 mg/kg.

corpora cavernosa [5] = experiment: Effect on the Relaxation Elicited by Electrical Field Stimulation in rat Corpora Cavernosa; conditions: compound at 10^-7 M
Method: (b) Effect of Test Compound on the Relaxation Elicited by Electrical Field Stimulation in rat Corpora Cavernosa.
The rat erectile tissue strip prepared according to the method described by Italiano et al. (Pharmacological Research, 30, No4, 1994) was placed 25 ml organ bath containing Krebs-Ringer solution. The bath was maintained at 37° C. and bubbled with 95% O2 and 5% CO2. The solution also contained atropine (1 μM) and guanethidine (50 μM). The erectile tissue strip was stretched with a resting force of 0.25 g, and isometric contraction were recorded via force development transducer on a recorder. The bipolar platinum electrode connected to the electric stimulator was placed around the strip.
The strip was equilibrated in the Krebs-Ringer solution for about 60 minutes and preconstructed by 0.1 mM norepinephrine to ascertain the responsibility of each preparation. The strip was washed several times, and then constricted by 0.1 mM norepinephrine. After getting stable contractile response to norepinephrine, the first electrical field stimulation (1 to 45 Hz, 20V, 0.5 msec duration, 90 sec interval) was delivered. 30 minutes after adding the tested compound, the second electrical field stimulation was delivered.

Cyclosporin nephritis = experiment: Cyclosporin Nephritis Model; type: in vivo, Spontaneously hypertensive rats; conditions: 3.2 mg/kg orally twice a day for two weeks; cyclosporin 50 mg/kg daily
Method: Cyclosporin Nephritis Model
Spontaneously hypertensive rats weighing 250-300 g were used. Cyclosporin dissolved in olive-oil containing 5% ethanol was given orally to the animals in a daily dose 50 mg/kg for 2 weeks. After the last dosing of cyclosporin, 24-hours urine was collected for urinalysis. Blood was withdrawn from the abdominal aorta under ether anesthesia 24 hours after the last dosing of cyclosporin, and plasma was separated by centrifugation for biochemical analysis. The animal were bled to death and kidneys were removed for histopathological examination.
The each test compound (3.2 mg/kg) was dissolved in PEG 400 and given orally by the volume of 1 ml/kg twice a day for two weeks.
Biochemistry and urinalysis: Urine volume, plasma creatinine, urine creatinine, blood urea nitrogen, plasma sodium, urine sodium, plasma potassium and urine potassium, were measured with an autoanalyzer (TBA-20R Toshiba, OM-6020 Daiichi Kagaku).
Histopathology: The kidneys were fixed in phosphate-buffered 10% formalin and its paraffin specimens were prepared and these sections were stained with hematoxylin.

[6] = 10 mg/kg orally twice a day for 16 weeks
[7] = 3.2, 10 mg/kg orally twice a day for 16 weeks

CCCc1c(C(=O)C(C)C)c2ccc(C(N)=O)cc2n1Cc1ccccc1Cl [Example 6, 1-(2-chlorobenzyl)-3-isobutyryl-2-propylindole-6-carboxamide]
4-hydroxyproline contents in renal cortex [1, 6]: perfectly inhibited the increased 4-hydroxyproline contents in renal cortex
reduction on average of the elimination of protein in urine [1, 6]: 37%
valiance of RR intervals in cardioelectrography [1, 6]: perfectly recovered the reduced valiance of RR intervals
blood flow in ears [1, 7]: improved the decreased blood flow in ears
onset of diabetic cataract [1, 7]: retarded the onset of diabetic cataract
parameters reflecting the abnormalities of peripheral circulation [1, 7]: improved the parameters reflecting the abnormalities of peripheral circulation
skin temperature on foot pad [1, 7]: raised the decreased skin temperature on foot pad
Ach-induced relaxation of corpora cavernosa (corpora cavernosa [2]): potentiated Ach-induced relaxation of corpora cavernosa
nitroprusside-induced relaxation of corpora cavernosa (corpora cavernosa [2]): potentiated nitroprusside-induced relaxation of corpora cavernosa
100 μM Ach-induced relaxant response (corpora cavernosa [2]; contraction by 10^-4 M norepinephrine, control 11.0%): 18.7%
IC50 (cGMP-PDE): < 100 nM
death on repetitive oral administration [3]: the dead at dose of 32 mg/kg once a day for 14 consecutive days could not be observed
duration of increase in blood flow ([4]; 1.0 mg/kg intravenous): > 15 min
peak value of increase in blood flow (of baseline) ([4]; 1.0 mg/kg intravenous): 55%
blood flow of corpus spongiosum penis and corpus cavernosum penis ([4]; intravenous): increased in the blood flow of both corpus spongiosum penis and corpus cavernosum penis
hemodynamic change ([4]; intravenous): without hemodynamic change
relaxation of corpora cavernosa elicited by electrical field stimulation (corpora cavernosa [5]): potentiated relaxation of corpora cavernosa elicited by electrical field stimulation
Relaxant response elicited by 30 Hz (corpora cavernosa [5]; control 14.3%): 17.1%
recovery in a measure of blood urea nitrogen (Cyclosporin nephritis): more than 50%
recovery in a measure of creatinine clearance (ml/kg/min) (Cyclosporin nephritis): more than 40%
